Test results as given in PubChem BioAssay (NCI).
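All cell lines were grown in 96-well plates and treated with compound for 48 hours. Here, GI50 denotes the concentration required for 50% inhibition of growth. TGI: concentration producing complete growth inhibition.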

Tests used:
Test in all cases: DTP human tumour cell line panel, 48 h
NCI-H460 lung = test system: NCI-H460 lung
BT-549 breast = test system: BT-549 breast
MALME-3M melanoma = test system: MALME-3M melanoma
A498 renal = test system: A498 renal
NCI-H522 lung = test system: NCI-H522 lung
SF-295 CNS = test system: SF-295 CNS
HL-60(TB) leukemia = test system: HL-60(TB) leukemia
KM12 colon = test system: KM12 colon
HOP-62 NSCLC = test system: HOP-62 NSCLC
SF-268 CNS = test system: SF-268 CNS
SR leukemia = test system: SR leukemia
DU-145 prostate = test system: DU-145 prostate
MDA-MB-468 breast = test system: MDA-MB-468 breast
TK-10 renal = test system: TK-10 renal
SNB-19 CNS = test system: SNB-19 CNS
SK-MEL-2 melanoma = test system: SK-MEL-2 melanoma
SN12C renal = test system: SN12C renal
COLO 205 colon = test system: COLO 205 colon
PC-3 prostate = test system: PC-3 prostate
EKVX NSCLC = test system: EKVX NSCLC
SF-539 CNS = test system: SF-539 CNS
786-0 renal = test system: 786-0 renal
UACC-62 melanoma = test system: UACC-62 melanoma
NCI/ADR-RES ovarian = test system: NCI/ADR-RES ovarian
K-562 leukemia = test system: K-562 leukemia
OVCAR-4 ovarian = test system: OVCAR-4 ovarian
HCT-15 colon = test system: HCT-15 colon
SNB-75 CNS = test system: SNB-75 CNS
HCC-2998 colon = test system: HCC-2998 colon
MDA-MB-231 breast = test system: MDA-MB-231 breast
MOLT-4 leukemia = test system: MOLT-4 leukemia
IGROV1 ovarian = test system: IGROV1 ovarian
LOX IMVI melanoma = test system: LOX IMVI melanoma
HT29 colon = test system: HT29 colon
OVCAR-3 ovarian = test system: OVCAR-3 ovarian
CAKI-1 renal = test system: CAKI-1 renal
NCI-H226 lung = test system: NCI-H226 lung
RXF 393 renal = test system: RXF 393 renal
NCI-H23 lung = test system: NCI-H23 lung
SK-MEL-5 melanoma = test system: SK-MEL-5 melanoma
T-47D breast = test system: T-47D breast
M14 melanoma = test system: M14 melanoma
UO-31 renal = test system: UO-31 renal
OVCAR-5 ovarian = test system: OVCAR-5 ovarian
A549 NSCLC = test system: A549 NSCLC
HOP-92 NSCLC = test system: HOP-92 NSCLC
SW-620 colon = test system: SW-620 colon
MCF7 breast = test system: MCF7 breast
RPMI-8226 leukemia = test system: RPMI-8226 leukemia
UACC-257 melanoma = test system: UACC-257 melanoma
OVCAR-8 ovarian = test system: OVCAR-8 ovarian
SK-OV-3 ovarian = test system: SK-OV-3 ovarian
CCRF-CEM leukemia = test system: CCRF-CEM leukemia
ACHN renal = test system: ACHN renal
HS 578T breast = test system: HS 578T breast
MDA-MB-435 = test system: MDA-MB-435
U251 CNS = test system: U251 CNS
SK-MEL-28 melanoma = test system: SK-MEL-28 melanoma

Compound: CCCCSc1nc(Nc2ccc(/C(C)=N/NC(N)=S)cc2)c(C#N)c(-c2ccc(F)cc2)n1
- GI50 (NCI-H460 lung): 0.578 µM
- TGI (NCI-H460 lung): 2.25 µM
- GI50 (BT-549 breast): 6.6 µM
- TGI (BT-549 breast): 28.1 µM
- GI50 (MALME-3M melanoma): 2.39 µM
- TGI (MALME-3M melanoma): 11.5 µM
- GI50 (A498 renal): 2.7 µM
- TGI (A498 renal): 7.1 µM
- GI50 (NCI-H522 lung): 1.92 µM
- TGI (NCI-H522 lung): 7.05 µM
- GI50 (SF-295 CNS): 1.21 µM
- TGI (SF-295 CNS): 2.75 µM
- GI50 (HL-60(TB) leukemia): > 100 µM
- TGI (HL-60(TB) leukemia): > 100 µM
- GI50 (KM12 colon): 15.9 µM
- TGI (KM12 colon): > 100 µM
- GI50 (HOP-62 NSCLC): 2.25 µM
- TGI (HOP-62 NSCLC): 5.1 µM
- GI50 (SF-268 CNS): 13.6 µM
- TGI (SF-268 CNS): 89.3 µM
- GI50 (SR leukemia): 8.62 µM
- TGI (SR leukemia): > 100 µM
- GI50 (DU-145 prostate): 3.12 µM
- TGI (DU-145 prostate): 49.8 µM
- GI50 (MDA-MB-468 breast): 2.26 µM
- TGI (MDA-MB-468 breast): 8.99 µM
- GI50 (TK-10 renal): 2.92 µM
- TGI (TK-10 renal): 7.08 µM
- GI50 (SNB-19 CNS): 2.51 µM
- TGI (SNB-19 CNS): 8.31 µM
- GI50 (SK-MEL-2 melanoma): 4.4 µM
- TGI (SK-MEL-2 melanoma): 20 µM
- GI50 (SN12C renal): 11.8 µM
- TGI (SN12C renal): 57 µM
- GI50 (COLO 205 colon): 4.03 µM
- TGI (COLO 205 colon): 23.1 µM
- GI50 (PC-3 prostate): 1.42 µM
- TGI (PC-3 prostate): 7.02 µM
- GI50 (EKVX NSCLC): 3.67 µM
- TGI (EKVX NSCLC): 17.2 µM
- GI50 (SF-539 CNS): 1.4 µM
- TGI (SF-539 CNS): 4.49 µM
- GI50 (786-0 renal): 1.69 µM
- TGI (786-0 renal): 3.88 µM
- GI50 (UACC-62 melanoma): 2.91 µM
- TGI (UACC-62 melanoma): 12 µM
- GI50 (NCI/ADR-RES ovarian): 1.34 µM
- TGI (NCI/ADR-RES ovarian): 5.72 µM
- GI50 (K-562 leukemia): 4.46 µM
- TGI (K-562 leukemia): > 100 µM
- GI50 (OVCAR-4 ovarian): 1.85 µM
- TGI (OVCAR-4 ovarian): 85.5 µM
- GI50 (HCT-15 colon): 1.38 µM
- TGI (HCT-15 colon): 16.8 µM
- GI50 (SNB-75 CNS): 1.6 µM
- TGI (SNB-75 CNS): 6.54 µM
- GI50 (HCC-2998 colon): 3.29 µM
- TGI (HCC-2998 colon): 18.7 µM
- GI50 (MDA-MB-231 breast): 1.03 µM
- TGI (MDA-MB-231 breast): 4.28 µM
- GI50 (MOLT-4 leukemia): 3.63 µM
- TGI (MOLT-4 leukemia): > 100 µM
- GI50 (IGROV1 ovarian): 12 µM
- TGI (IGROV1 ovarian): 30.3 µM
- GI50 (LOX IMVI melanoma): 1.88 µM
- TGI (LOX IMVI melanoma): 10.1 µM
- GI50 (HT29 colon): 5.89 µM
- TGI (HT29 colon): > 100 µM
- GI50 (OVCAR-3 ovarian): 2.57 µM
- TGI (OVCAR-3 ovarian): 10.1 µM
- GI50 (CAKI-1 renal): 1.71 µM
- TGI (CAKI-1 renal): 4.97 µM
- GI50 (NCI-H226 lung): 1.59 µM
- TGI (NCI-H226 lung): 5.29 µM
- GI50 (RXF 393 renal): 1.97 µM
- TGI (RXF 393 renal): 5.49 µM
- GI50 (NCI-H23 lung): 1.56 µM
- TGI (NCI-H23 lung): 4.69 µM
- GI50 (SK-MEL-5 melanoma): 2.3 µM
- TGI (SK-MEL-5 melanoma): 12.5 µM
- GI50 (T-47D breast): 1.19 µM
- TGI (T-47D breast): 18 µM
- GI50 (M14 melanoma): 3.52 µM
- TGI (M14 melanoma): 19.6 µM
- GI50 (UO-31 renal): 0.761 µM
- TGI (UO-31 renal): 3.01 µM
- GI50 (OVCAR-5 ovarian): 12.5 µM
- TGI (OVCAR-5 ovarian): 50.5 µM
- GI50 (A549 NSCLC): 2.35 µM
- TGI (A549 NSCLC): 7.57 µM
- GI50 (HOP-92 NSCLC): 1.23 µM
- TGI (HOP-92 NSCLC): 4.01 µM
- GI50 (SW-620 colon): 2.7 µM
- TGI (SW-620 colon): 42.1 µM
- GI50 (MCF7 breast): 0.893 µM
- TGI (MCF7 breast): 11.4 µM
- GI50 (RPMI-8226 leukemia): 3.4 µM
- TGI (RPMI-8226 leukemia): > 100 µM
- GI50 (UACC-257 melanoma): 15.4 µM
- TGI (UACC-257 melanoma): 61.8 µM
- GI50 (OVCAR-8 ovarian): 3.85 µM
- TGI (OVCAR-8 ovarian): 21.1 µM
- GI50 (SK-OV-3 ovarian): 3.54 µM
- TGI (SK-OV-3 ovarian): 9.87 µM
- GI50 (CCRF-CEM leukemia): 0.814 µM
- TGI (CCRF-CEM leukemia): > 100 µM
- GI50 (ACHN renal): 0.858 µM
- TGI (ACHN renal): 4.37 µM
- GI50 (HS 578T breast): 1.71 µM
- TGI (HS 578T breast): 8.14 µM
- GI50 (MDA-MB-435): 4.13 µM
- TGI (MDA-MB-435): 24.8 µM
- GI50 (U251 CNS): 1.24 µM
- TGI (U251 CNS): 3.83 µM
- GI50 (SK-MEL-28 melanoma): 3.83 µM
- TGI (SK-MEL-28 melanoma): 17.9 µM
